Experiments:
cannabis clone = assay: rooting of a difficult to root cannabis clone; format: in vivo; details: 6000 ppm IBA with 50 μM compound for 1 minute; 2 weeks; vs IBA alone
Description: Cannabis is usually an easy to root plant. […] A relatively difficult to root cannabis clone was treated with 6000 ppm IBA or with a similar treatment combined with 50 μM of Compound 82 (4-CPA-L-Trp sodium salt) for 1 minute. Rooting was scored after 2 weeks.

[1] = tested on: avocado rootstock cuttings; assay: rooting of avocado rootstock cuttings; format: in vivo
In short: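 Green cuttings of avocado rootstock (including hard-to-root VC801) were treated with auxin conjugates in the presence of IBA and scored for rooting.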

[2] = tested on: argan (Argania spinosa) cuttings; assay: rooting of argan cuttings; format: in vivo; details: after 1.5 months; compound with IBA, or IBA control
Description: The ability of exemplary conjugates to promote rooting in plants which are recalcitrant to rooting (in addition to the results obtained with Eucalyptus grandis in Example 3) was examined using cuttings of argan (Argania spinosa) and jojoba (Simmondsia chinensis) in a commercial nursery (Shorashim). The argan and jojoba cuttings were treated with 100 μM of a conjugate (any of Compounds 10-1t) with 6000 ppm IBA. The common treatment T-8 (talc with 8000 ppm IBA and a fungicide) or 6000 ppm IBA (without conjugate) served as a control.
Exemplary conjugates were also tested for rooting the hard-to-root species of avocado (VC801 rootstock) and argan, according to procedures described hereinabove.

[3] = tested on: transgenic citrus rootstocks; assay: rooting of transgenic citrus rootstocks in tissue culture; format: in vivo; details: 0% without compound, data not shown
Text: Compound 82 was also used to induce rooting of transgenic citrus rootstocks in tissue culture. It is well known that shoots created in tissue culture conditions following genetic modifications are typically difficult to root. Using Compound 82, 60% rooting was obtained, as compared to 0% without Compound 82 (data not shown).

DR5:venus marker = assay: auxin activity by DR5:venus fluorescence in Arabidopsis plants; format: in vivo; details: 10 μM
Description: Imaging was performed using an SP8 Leica confocal microscope including solid-state lasers producing 405, 488, 514 and 552 nm light, and hybrid or PMT detectors. Objectives were either PL APO 20×/0.75, WD 0.62 mm or PL APO 63×/1.2 WD 0.3 mm. For fluorescence measurements, the Imaris™ spot detection option (Bitplane A.G.) was used to segment nuclei and calculate the average signal intensity.
One technique for assessing auxin activity of the 4-CPA amino acid conjugates utilized plants expressing nucleus-localized, fluorescent DR5:venus marker, the expression level of which is an indicator of intracellular auxin activity [Laskowski et al., PLoS Biol 2008, 6:e307]. Four days old seedlings grown on regular MS medium were transferred to plates containing 10 μM of the tested compounds and fluorescence was inspected by confocal microscope after 24 hours.
In order to assess the ability of the abovementioned sodium salts to penetrate the cells and activate an auxin response, an Arabidopsis DR5-Venus model was utilized (as described hereinabove). The plants were exposed to 10 μM of each compound for 24 hour; MS medium was used as a negative control, and the related Compounds 1p, 1r and 1t were used as positive controls.

[4] = tested on: Eucalyptus x trabutii cuttings; assay: rooting of Eucalyptus x trabutii cuttings; format: in vivo; details: K-IBA alone or with 100 μM compound
Description: (§1) In order to investigate cloning of productive eucalyptus trees from cuttings, branches were excised from mature Eucalyptus x trabutii and Eucalyptus brachyphylla trees the field (in Kfar Pines, Israel)—selected based on their exceptional nectar production and honeybee attraction—placed in a humidified cooler box and brought to a climate-controlled greenhouse within 2 hours. Each cutting, 7 cm long, included three nodes with only two leaves remaining at its apical end. Two-thirds of each blade was excised to minimize evapotranspiration. The cutting bases were submerged for 1 minute in 6 grams/liter indole-3-butyric acid potassium salt (K-IBA), optionally supplemented with Compound 1s or 1t at a concentration of 100 μM. In addition, the leaves were sprayed with 100 μM of each compound in the presence of 0.05% Triton X-100 surfactant. Stock solutions of Compounds 1s and 1t were at a concentration of 100 mM in DMSO. The cuttings were planted in rooting medium containing peat, vermiculite and polystyrene flakes at a ratio of 1:2:3 respectively, on a heated rooting table under 90% humidity. Fungicides were applied to the rooting media on a weekly basis. Rooting percentage, number of roots per cutting and root length were measured after 1 and 2 weeks and after 1 and 2 months.

mung bean cuttings = assay: rooting of mung bean cuttings (number of adventitious roots per cutting); format: in vivo; details: 50 μM
In short: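 Readout was the number of adventitious roots per cutting in mung bean cuttings. Conjugates of 4-CPA, MCPA and 2-DP were tested alongside unconjugated IBA and 2-DP–glycine methyl ester.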

[5] = tested on: Eucalyptus brachyphylla cuttings; assay: rooting of Eucalyptus brachyphylla cuttings; format: in vivo; details: K-IBA alone or with 100 μM compound
Description: as §1

[6] = tested on: cuttings from mature Eucalyptus grandis trees; assay: rooting of cuttings from mature Eucalyptus grandis trees; format: in vivo
In short: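 Cuttings (12-15 cm, two upper leaves halved) from branches of 8-year-old net-house plants; bases dipped 1 min in 6000 ppm IBA potassium salt plus 50 μM conjugate, leaves sprayed with 50 μM conjugate in 0.5% Triton X-100. Rooted at 25° C, 90% humidity, peat:vermiculite:polystyrene 1:2:3; rooting scored after 30-60 days.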

Arabidopsis seedlings = assay: root elongation inhibition in Arabidopsis seedlings; format: in vivo
[7] = tested on: cuttings from mature Eucalyptus grandis trees; details: literature value for this model (Abu-Abied et al. 2012); cited from earlier work

Compound	number of roots in cannabis, in words (cannabis clone)	rooting percentage in cannabis, in words (cannabis clone)	root architecture / root length of VC801 avocado cuttings compared to IBA control, in words ([1]; VC801 rootstock)	rooting in argan clone YM3 [2]	roots per cutting in argan clone YM3 [2]	rooting of transgenic citrus rootstocks [3]	DR5 fluorescence (auxin activity), in words (DR5:venus marker)	mean root number per cutting, E. x trabutii [4]	rooting of VC801 avocado cuttings ([1]; VC801 rootstock, conjugate, or IBA control)	rooting rate of etiolated avocado branches ([1]; vc51 rootstock, IBA)	rooting rate of green avocado branches ([1]; vc51 rootstock, IBA)	rooting of mung bean cuttings (number of roots per cutting) (mung bean cuttings; Table 1, water control 29.6)	rooting of mung bean cuttings (number of roots per cutting) (mung bean cuttings; Table 2)	mean root number per cutting, E. brachyphylla [5]	percentage of cuttings which exhibited rooting, stand-alone treatment ([6]; 100 μM conjugate without IBA, or 28 mM (6000 ppm) IBA alone, submerging base or spraying, scored after 45-60 days)	rooting of cuttings, repeated experiment in a different season ([6]; Example 12 repeat: 6000 ppm IBA with 50 μM conjugate, or IBA control)	effect on root elongation relative to control, in words (Arabidopsis seedlings; 50 nM, after 5 days)	concentration required to inhibit root elongation (Arabidopsis seedlings; 4 day old seedlings, 5 days on vertical plates)	root development in the presence of IBA potassium salt [7]
O=C(COc1ccc(Cl)cc1)N[C@@H](Cc1c[nH]c2ccccc12)C(=O)[O-].[Na+] [Compound 82, 4-CPA-L-Trp sodium salt]	significant increase in number of roots	small increase in the rooting percentage	considerably increased root length	80%	about 7	60%	about as active as their non-water soluble methyl esters	–	–	–	–	–	–	–	–	–	–	–	–
O=C(O)CCCc1c[nH]c2ccccc12 [IBA, indole-3-butyric acid, reference compound]	–	–	–	50%	2-3	–	–	about 5	about 35%	80%	10%	81.0	101	about 4	12%	10%	no apparent inhibitory effect on root elongation	1 to 10 µM	5-15%

— US20220030866A1, “CONJUGATES OF AUXIN ANALOGS” (The State of Israel, Ministry of Agriculture & Rural …, priority 2019, published 2022)
